Each compound was assayed against WDR5 (Homo sapiens (Human), UniProt P61964) (assay: Fluorescence polarization anisotropy (FPA) competition assay, displacement of FITC-MLL or 10mer-Thr-FAM peptide). Conditions: Inhibition of WDR5 by FPA assay.
Assay type: binding
Excerpt: The assay is run in 384-well format and is read on a BioTek Cytation. […] Replicate values are fit to a 4-parameter fit in XLFit to generate a single IC50 value for each compound that is then converted to a Ki value. Experiments are repeated to generate a 2nd, independent Ki value; values from the two experiments are averaged to produce the reported Ki value for the compound.

Ki | Compound
5.1 nM | COc1cc(CNC(=O)c2cc(Cn3ccnc3)cc(Oc3ccccc3)c2)cc(OC)c1 [Example 120, 3-((1H-imidazol-1-yl)methyl)-N-(3,5-dimethoxybenzyl)-5-phenoxybenzamide]
33.7 nM | O=C(NCc1cc(Cl)cc(Cl)c1)c1cc(Cl)cc(Cn2ccnc2)c1 [Example 110, 3-((1H-Imidazol-1-yl)methyl)-5-chloro-N-(3,5-dichlorobenzyl)benzamide]
8.6 nM | CC(C)(NC(=O)c1cc(Cn2ccnc2)cc(-c2ccc(F)cc2Cl)n1)C1CC1 [Example 149, 4-((1H-imidazol-1-yl)methyl)-6-(2-chloro-4-fluorophenyl)-N-(2-cyclopropylpropan-2-yl)picolinamide]
141 nM | COc1cc(Cn2ccnc2)cc(C(=O)NCc2ccc(Cl)c(C)c2)c1 [Example 113, 3-((1H-Imidazol-1-yl)methyl)-N-(4-chloro-3-methylbenzyl)-5-methoxybenzamide]
5.1 nM | COc1cc(OC)cc(C(C)NC(=O)c2cc(Cn3ccnc3)cc(-c3ccc(F)cc3Cl)n2)c1 (centres unmarked) [Example 154, 4-((1H-Imidazol-1-yl)methyl)-6-(2-chloro-4-fluorophenyl)-N-(1-(3,5-dimethoxyphenyl)ethyl)picolinamide]
4.8 nM | Cc1cc(C)cc(CNC(=O)c2cc(Cn3ccnc3)cc(-c3ccc(F)cc3Cl)n2)c1 [Example 153, 4-((1H-Imidazol-1-yl)methyl)-6-(2-chloro-4-fluorophenyl)-N-(3,5-dimethylbenzyl)picolinamide]
1.3 nM | Cc1ccncc1-c1cc(Cn2ccnc2)cc(C(=O)NCc2ccc(Cl)c(Cl)c2)c1 [Example 121, 3-((1H-imidazol-1-yl)methyl)-N-(3,4-dichlorobenzyl)-5-(4-methylpyridin-3-yl)benzamide]
13.1 nM | CCC(NC(=O)c1cc(Cn2ccnc2)cc(-c2ccc(F)cc2Cl)n1)C1CC1 (centres unmarked) [Example 152, 4-((1H-Imidazol-1-yl)methyl)-6-(2-chloro-4-fluorophenyl)-N-(1-cyclopropylpropyl)picolinamide]
6.5 nM | O=C(NCc1ccc(Cl)c(Cl)c1)c1cc(Cn2ccnc2)cc(N2CCCC2)c1 [Example 136, 3-((1H-Imidazol-1-yl)methyl)-N-(3,4-dichlorobenzyl)-5-(pyrrolidin-1-yl)benzamide]
2.7 nM | COc1cc(CNC(=O)c2cc(CNC3=NCCN3)cc(-c3ccc(F)cc3Cl)c2)cc(OC)c1 [Example 3, 2′-chloro-5-(((4,5-dihydro-1H-imidazol-2-yl)amino)methyl)-N-(3,5-dimethoxybenzyl)-4′-fluoro-[1,1′-biphenyl]-3-carboxamide]
> 10000 nM | O=C(NCc1ccc(Cl)c(Cl)c1)c1cc(Cn2ccnc2C(F)(F)F)cc(-c2ccc(F)cc2Cl)c1 [Example 135, 2′-Chloro-N-(3,4-dichlorobenzyl)-4′-fluoro-5-((2-(trifluoromethyl)-1H-imidazol-1-yl)methyl)-[1,1′-biphenyl]-3-carboxamide]
3.5 nM | Cc1cc(CNC(=O)c2cc(Cn3ccnc3)cc(OC3CCCC3)c2)ccc1Cl [Example 115, 3-((1H-Imidazol-1-yl)methyl)-N-(4-chloro-3-methylbenzyl)-5-(cyclopentyloxy)benzamide]
2.1 nM | COc1cc(CNC(=O)c2cc(Cn3ccnc3)cc(-c3ccoc3C)c2)cc(OC)c1 [Example 130, 3-((1H-Imidazol-1-yl)methyl)-N-(3,5-dimethoxybenzyl)-5-(2-methylfuran-3-yl)benzamide]
8.7 nM | Cc1cc(-c2cc(Cn3ccnc3)cc(C(=O)NCc3ccc(Cl)c(Cl)c3)c2)ccn1 [Example 123, 3-((1H-Imidazol-1-yl)methyl)-N-(3,4-dichlorobenzyl)-5-(2-methylpyridin-4-yl)benzamide]

Same assay, conditions: Table B2, WDR5 WIN-site binding affinity; values not less than 1 nM (FPA)

Compound | Ki
O=C(NCc1cc(Cl)cc(Cl)c1)c1cccc(CNC2=NCCN2)c1 [Example B1, N-(3,5-dichlorobenzyl)-3-(((4,5-dihydro-1H-imidazol-2-yl)amino)methyl)benzamide] | 18 nM
O=C(NCc1cc(Cl)cc(Cl)c1)c1cc(Cl)cc(CNC2=NCCN2)c1 [Example B9] | 17.4 nM
Cc1cc(C)cc(CNC(=O)c2cc(F)c(F)c(CNC3=NCCN3)c2)c1 [Example B31] | 8.11 nM
Cc1ccnc(C(NC(=O)c2cc(CNC3=NCCN3)c(F)cc2F)C2CC2)c1 (centres unmarked) [Example B48] | 2.17 nM
CCOc1ccc(C(=O)NC(c2cc(C)ccn2)C2CC2)cc1CNC1=NCCN1 (centres unmarked) [Example B50] | 12.4 nM
COc1cc(OC)cc(C(C)NC(=O)c2ccc(OC(C)C)c(CNC3=NCCC3)c2)c1 (centres unmarked) [Example B124] | > 33 nM
CC(C)N(Cc1cccc(Cl)c1)C(=O)c1cccc(CNC2=NCCN2)c1 [Example B2] | 400 nM
CC(NC(=O)c1cc(Cl)cc(CNC2=NCCN2)c1)c1cccc(Cl)c1 (centres unmarked) [Example B12] | 65.1 nM
Cc1cc(-c2cc(CNC3=NCCN3)cc(C(=O)NCc3cccc(F)n3)c2)ccn1 [Example B95] | 6.1 nM
Cc1ccnc(C(NC(=O)c2ccc(F)c(CNC3=NCCN3)c2)C2CC2)c1 (centres unmarked) [Example B20] | 4.6 nM
Cc1ccncc1-c1cc(CNC2=NCCN2)cc(C(=O)NCc2cccc(F)n2)c1 [Example B89] | 4.39 nM
COc1cc(OC)cc(C(C)NC(=O)c2cc(F)c(F)c(CNC3=NCCN3)c2)c1 (centres unmarked) [Example B35] | 4.22 nM
Cc1cc(C)cc(CNC(=O)c2cc(CNC3=NCCN3)cc(-c3ccc(F)cc3Cl)c2)c1 [Example B55] | 1.27 nM

The next lines start with the values.

Ki | Compound
3.96 nM | Cc1cnc(CNC(=O)c2ccc(F)c(CNC3=NCCN3)c2)cn1 [Example B46]
24.5 nM | COc1cc(CNC(=O)c2ccc(OC)c(CNC3=NCCN3)c2)ccc1Cl [Example B38]
30.3 nM | O=C(NCc1ccc(Cl)cn1)c1ccc(F)c(CNC2=NCCN2)c1 [Example B23]
3.24 nM | COc1ccc(C(=O)NCc2ccc(F)c(CNC3=NCCN3)c2)cc1Cl [Example B26]
54.5 nM | Cc1ccc(CNC(=O)c2cc(Cl)cc(CNC3=NCCN3)c2)cc1Cl [Example B10]
12 nM | COc1ccnc(CNC(=O)c2cc(F)c(F)c(CNC3=NCCN3)c2)c1 [Example B34]
1.5 nM | COc1ccnc(CNC(=O)c2ccc(F)c(CNC3=NCCN3)c2)c1 [Example B22]
1.39 nM | COc1ccc(C(=O)NCc2cc(Cl)ccn2)cc1CNC1=NCCN1 [Example B39]
33 nM | COc1cc(OC)cc(C(C)NC(=O)c2ccc(OC(C)C)c(CNC3=NCCN3)c2)c1 (centres unmarked) [Example B52, 3-(((4,5-dihydro-1H-imidazol-2-yl)amino)methyl)-N-(1-(3,5-dimethoxyphenyl)ethyl)-4-isopropoxybenzamide]
11.3 nM | Cc1cc(C)nc(CNC(=O)c2ccc(F)c(CNC3=NCCN3)c2)n1 [Example B45]
2.06 nM | Cc1cc(CNC(=O)c2cc(CNC3=NCCN3)cc(-c3ccc(F)cc3Cl)c2)ccc1Cl [Example B58]
4.51 nM | COc1ccc(CNC(=O)c2cc(F)c(F)c(CNC3=NCCN3)c2)cc1Cl [Example B32]
1.12 nM | O=C(NCc1ccc(Cl)c(Cl)c1)c1cc(CNC2=NCCN2)cc(-c2ccc(F)cc2Cl)c1 [Example B54]
24.9 nM | Cc1ccnc(CNC(=O)c2ccc(F)c(CNC3=NCCN3)c2)c1 [Example B29]
20.3 nM | COc1ccc(C(=O)NCc2ccc(Cl)cn2)cc1CNC1=NCCN1 [Example B44]
209 nM | O=C(NCc1ccc(Cl)c(Cl)c1)c1cccc(CNC2=NCCN2)c1 [Example B3]
7.52 nM | COc1cc(CNC(=O)c2ccc(OC)c(CNC3=NCCN3)c2)cc(OC)c1 [Example B27, 3-(((4,5-dihydro-1H-imidazol-2-yl)amino)methyl)-N-(3,5-dimethoxybenzyl)-4-methoxybenzamide]
11.9 nM | Cc1cc(CNC(=O)c2cccc(CNC3=NCCN3)c2)ccc1Cl [Example B4]
7.21 nM | COc1ccnc(CNC(=O)c2ccc(OC)c(CNC3=NCCN3)c2)c1 [Example B40]
> 33 nM | CC(C)Oc1ccc(C(=O)NCc2ccc(Cl)c(Cl)c2)cc1CNC1=NCCC1 [Example B125]
8.71 nM | COc1cc(CNC(=O)c2cc(CNC3=NCCN3)ccc2F)cc(OC)c1 [Example B37]
1.82 nM | COc1cc(OC)cc(C(C)NC(=O)c2ccc(OC)c(CNC3=NCCN3)c2)c1 (centres unmarked) [Example B43]
9.77 nM | CCOc1ccc(C(=O)NC(C)c2cc(OC)cc(OC)c2)cc1CNC1=NCCN1 (centres unmarked) [Example B51, 3-(((4,5-dihydro-1H-imidazol-2-yl)amino)methyl)-N-(1-(3,5-dimethoxyphenyl)ethyl)-4-ethoxybenzamides]
40.9 nM | CC(C)Oc1ccc(C(=O)NCc2ccc(Cl)c(Cl)c2)cc1CNC1=NCCN1 [Example B53]
46 nM | Cc1cc(C)cc(CNC(=O)c2cc(Cl)cc(CNC3=NCCN3)c2)c1 [Example B11]
74.2 nM | COc1cccc(CNC(=O)c2ccc(F)c(CNC3=NCCN3)c2)n1 [Example B25]
8.06 nM | COc1ccc(CNC(=O)c2ccc(F)c(CNC3=NCCN3)c2)cc1OC [Example B19]

Same assay, conditions: Table C2, WDR5 WIN-site binding affinity; values not less than 1 nM (FPA)

Ki | Compound
1.58 nM | COc1cc(CNC(=O)c2cc(CNC3=NCCC3)cc(-c3ccc(F)cc3C(F)(F)F)n2)cc(OC)c1 [Example C27]
30.3 nM | COc1cc(OC)cc(C(C)NC(=O)c2cc(CNC3=NCCN3)ccn2)c1 (centres unmarked) [Example C20, 4-(((4,5-dihydro-1H-imidazol-2-yl)amino)methyl)-N-(1-(3,5-dimethoxyphenyl)ethyl)picolinamide]
32.5 nM | COc1cc(OC)cc(C(C)NC(=O)c2ccnc(CNC3=NCCN3)c2)c1 (centres unmarked) [Example C34, 2-(((4,5-dihydro-1H-imidazol-2-yl)amino)methyl)-N-(1-(3,5-dimethoxyphenyl)ethyl)isonicotinamide]
33 nM | COc1cc(OC)cc(C(C)NC(=O)c2cc(CNC3=NCCC3)ccn2)c1 (centres unmarked) [Example C21, 4-(((3,4-dihydro-2H-pyrrol-5-yl)amino)methyl)-N-(1-(3,5-dimethoxyphenyl)ethyl)picolinamide]
1.54 nM | Cc1cnc(C(C)NC(=O)c2cc(CNC3=NCCC3)cc(-c3ccc(F)cc3C(F)(F)F)n2)cc1Cl (centres unmarked) [Example C32]

From patent US10807959B2, “WDR5-MLL1 inhibitors and modulators” (Vanderbilt University, priority 2018, dated 2020)
